Drawing on patent publication US20040034019A1, “Piperazine and piperidine derivatives” (priority 2002, published 2004), this text covers EC50 for 54 compounds.

Counter-ions that a name gives are not always drawn. A value given as a limit tells only on which side of the number the result lay.

The subject of the experiment is rat embryo ventral mesencephalic cells. Kind of experiment: Neuroprotection assay (NMDA neuroexcitotoxic injury, high affinity 3H-dopamine uptake). It counts as cell-based, Sprague-Dawley rat. The settings on record: embryonic day 15 rat VM cell culture, NMDA (100-400 μM) for 20 hours. The source says:
The neuroprotective activity of the compounds of this invention may be assayed using rat embryo ventral mesencephalic cells in culture which are subsequently exposed to the glutamate receptor agonist NMDA. This assay is described in detail in the example section.
The ventral mesencephalic region was dissected out of embryonic day 15 Sprague-Dawley rat embryos (Harlan), dissociated into single cell suspension by a combination of trypsinization and trituration (Costantini et al., Neurobiol Dis., pp. 97-106 (1998). Dissociated VM cells were plated into poly-L-ornithine-coated 96-well plates at a density of 85,000 cells/well in 100 uL of DMEM supplemented with 18% heat-inactivated horse serum, 0.24% glucose, 2 mM glutamine and 50 u/ml penicillin/streptomycin and incubated in a 5% CO2 incubator. After one day in culture (DIV1), the medium was replaced with 100 μL of a defined medium (DMEM supplemented with 1× N2 cocktail (Gibco-BRL), 0.12% glucose, 2 mM glutamine, and 50 units/ml penicillin/streptomycin) containing DMSO or various concentrations of the compounds of this invention. On DIV5, neuroexcitotoxic injury was induced by the addition of various concentrations of the glutamate receptor agonist NMDA (100-400 μM). Cultures were incubated with the neurotoxin for 20 hours and the effects of neurophilin compounds were assessed using high affinity ^3H-dopamine uptake according to a procedure published by Park and Mytilineou [Brain Res., 599, pp. 83-97 (1992)].
As a reminder, the EC50 is the concentration that produces a half-maximal response. For the compound `CCN1CCCC[C@H]1C(=O)N1C[C@@H]2C[C@H]1CN2Cc1ccccc1` (stereo in doubt) [Compound 24, 1-(5-benzyl-2,5-diaza-bicyclo[2.2.1]-hept-2-yl)-1-((S)-1-ethyl-piperidino-2-yl)-methanone], the EC50 was above 0.5 µM.

On to `CCN1CCCC[C@H]1C(=O)N1CCN(c2ccccn2)CC1` [Compound 2], for which the 50% effective concentration (EC50) is above 0.5 µM.

For the compound `CN1CCC=C(C(=O)N2CCN(C(c3ccccc3)c3ccccc3)CC2)C1` [Compound 4], the EC50 is above 0.5 µM.

Regarding `O=C([C@@H]1CCCN1Cc1ccccc1)N1CCN(C(c2ccccc2)c2ccccc2)CC1` [Compound 7], the concentration for a half-maximal effect (EC50) was below 0.1 µM.

In the case of `CN1CCC[C@H]1C(=O)N1CCN(C(c2ccccc2)c2ccccc2)CC1` [Compound 8], the EC50 is above 0.5 µM.

As to `CN1CCC(C(=O)N2CCN(C(c3ccccc3)c3ccccc3)CC2)CC1` [Compound 11], the EC50 is above 0.5 µM.

Consider `CCN1CCCC[C@H]1C(=O)N1C[C@@H]2C[C@H]1CN2C(c1ccccc1)c1ccccc1` [Compound 17, 1-[(1S, 4S)-5-(1,1-Diphenylmethyl)-5-diazabicyclo[2.2.1]-hept-2-yl]-1-((S)-1-ethylpiperidin-2-yl)methanone], for which the EC50 lay within 0.1 to 0.5 µM.

Turning to `O=C1C[C@@H](C(=O)N2CCC(Cc3ccccc3)CC2)N(Cc2ccccc2)C1` [Compound 29, (2S)-1-Benzyl-5-(4-benzylpiperidine-1-carbonyl)-pyrrolidin-3-one], the concentration for a half-maximal effect (EC50) fell in the range of 0.1 to 0.5 µM.

Regarding `CON=C1C[C@@H](C(=O)N2CCC(Cc3ccccc3)CC2)N(Cc2ccccc2)C1` [Compound 31, (2S)-1-Benzyl-5-(4-benzylpiperidine-1-carbonyl)-pyrrolidin-3-one O-methyl-oxime], the concentration for a half-maximal effect (EC50) lay within 0.1 to 0.5 µM.

Turning to `CCN1CCCC[C@H]1C(=O)N1CCN(c2ccccc2)CC1` [Compound 39, ((2S)-1-Ethylpiperidin-2-yl)-(4-phenylpiperazin-1-yl)-methanone dihydrochloride], the 50% effective concentration (EC50) was below 0.1 µM.

In the case of `CCN1CCCC[C@H]1C(=O)N1CCN(C(c2ccccc2)c2ccc(F)cc2)CC1` (stereo partly drawn) [Compound 42, ((2S)-1-Ethylpiperidin-2-yl)-{4-[(4-fluorophenyl)phenylmethy]-piperazin-1-yl}-methanone dihydrochloride], the 50% effective concentration (EC50) is below 0.1 µM.

Regarding `O=C([C@@H]1CCCN1Cc1ccccc1)N1CCN(C(c2ccc(F)cc2)c2ccc(F)cc2)CC1` [Compound 51, ((2S)-1-Benzylpyrrolidin-2-yl)-{4-bis-(4-fluorophenyl)methyl]-piperazin-1-yl}-methanone dihydrochloride], the EC50 is above 0.5 µM.

Consider `C=CCN1CCCC[C@H]1C(=O)N1CCN(C(c2ccc(F)cc2)c2ccc(F)cc2)CC1` [Compound 64, ((2S)-1-Allylpiperidin-2-yl)-{4-[bis-(4-fluorophenyl)methyl]-piperazin-1-yl}-methanone], for which the concentration for a half-maximal effect (EC50) was above 0.5 µM.

`CCN1CCCC[C@H]1C(=O)N1CCN(CCCc2ccccc2)CC1` [Compound 70, ((2S)-1-Ethylpiperidin-2-yl)-[4-(3-phenylpropyl)-piperazin-1-yl]-methanone dihydrochloride]: the concentration giving a half-maximal response (EC50) fell in the range of 0.1 to 0.5 µM.

Consider `CCN1CCCC[C@H]1C(=O)N1CCN(Cc2ccc(Cl)cc2)CC1` [Compound 72, [4-(4-Chlorobenzyl)-piperazin-1-yl]-((2S)-1-ethylpiperidin-2-yl)-methanone dihydrochloride], for which the EC50 is above 0.5 µM.

In the case of `CCN1CCCC[C@H]1C(=O)N1CCN(Cc2cccs2)CC1` [Compound 73, ((2S)-1-Ethylpiperidin-2-yl)-(4-thiophen-2-ylmethylpiperazin-1-yl)-methanone dihydrochloride], the half-maximal effective concentration (EC50) was above 0.5 µM.

Consider `CCN1CCCC[C@H]1CN1CCN(C(c2ccc(F)cc2)c2ccc(F)cc2)CC1` [Compound 102, 1-[Bis-(4-fluorophenyl)methyl)-4-((2S)-1-ethylpiperidin-2-ylmethyl)-piperazine.], for which the EC50 was below 0.1 µM.

With `CN1CSC(C)(C)[C@H]1C(=O)N1CCC(Cc2ccccc2)CC1` [Compound 200], the EC50 was in the range of 0.1 to 0.5 µM.

In the case of `CCN1CC=C[C@H]1C(=O)N1CCN(C(c2ccc(F)cc2)c2ccc(F)cc2)CC1` [Compound 201], the EC50 is above 0.5 µM.

In the case of `CCN1C[C@H]2C[C@@H]2C1C(=O)N1CCN(C(c2ccc(F)cc2)c2ccc(F)cc2)CC1` (stereo partly drawn) [Compound 203], the concentration giving a half-maximal response (EC50) is 0.1 to 0.5 µM.

`CCN1CC[C@H](C)[C@H]1C(=O)N1CCN(C(c2ccc(F)cc2)c2ccc(F)cc2)CC1` [Compound 205]: the EC50 is below 0.1 µM.

For `CN1[C@@H](C(=O)N2CCC(Cc3ccccc3)CC2)CC[C@H]1c1ccccc1` [Compound 206], the 50% effective concentration (EC50) was below 0.1 µM.

As for `CCN1C(C)CC[C@H]1C(=O)N1CCN(C(c2ccc(F)cc2)c2ccc(F)cc2)CC1` (stereo partly drawn) [Compound 207], the 50% effective concentration (EC50) lay within 0.1 to 0.5 µM.

On to `CCN1CCC[C@]1(C)C(=O)N1CCN(C(c2ccc(F)cc2)c2ccc(F)cc2)CC1` [Compound 209], for which the EC50 lay in the range of 0.1 to 0.5 µM.

On to `CCN1CSC[C@H]1C(=O)N1CCN(C(c2ccc(F)cc2)c2ccc(F)cc2)CC1` [Compound 211], for which the EC50 was above 0.5 µM.

As to `CCN1[C@@H](C(=O)N2CCN(C(c3ccc(F)cc3)c3ccc(F)cc3)CC2)CC[C@H]1c1ccccc1` [Compound 213], the EC50 was above 0.5 µM.

Regarding `CCN1C[C@H](c2ccccc2)C[C@H]1C(=O)N1CCN(C(c2ccc(F)cc2)c2ccc(F)cc2)CC1` [Compound 215], the EC50 is above 0.5 µM.

For the compound `CN1CSC(C)(C)[C@H]1C(=O)N1CCN(C(c2ccc(F)cc2)c2ccc(F)cc2)CC1` [Compound 216], the EC50 was above 0.5 µM.

For `CCN1CC[C@@H](c2ccccc2)[C@H]1C(=O)N1CCN(C(c2ccc(F)cc2)c2ccc(F)cc2)CC1` [Compound 217], the EC50 was above 0.5 µM.

Consider `O=C([C@@H]1C=CCN1Cc1ccccc1)N1CCC(Cc2ccccc2)CC1` [Compound 219], for which the concentration giving a half-maximal response (EC50) lay within 0.1 to 0.5 µM.

With `O=C(C1[C@H]2C[C@@H]2CN1Cc1ccccc1)N1CCC(Cc2ccccc2)CC1` (stereo partly drawn) [Compound 221], the 50% effective concentration (EC50) was below 0.1 µM.

For `CN1[C@@H](C(=O)N2CCN(C(c3ccc(F)cc3)c3ccc(F)cc3)CC2)CC[C@H]1c1ccccc1` [Compound 222], the half-maximal effective concentration (EC50) is above 0.5 µM.

For `C[C@H]1CCN(Cc2ccccc2)[C@@H]1C(=O)N1CCC(Cc2ccccc2)CC1` [Compound 223], the concentration giving a half-maximal response (EC50) is below 0.1 µM.

Turning to `CN1C[C@H](c2ccccc2)C[C@H]1C(=O)N1CCN(C(c2ccc(F)cc2)c2ccc(F)cc2)CC1` [Compound 224], the concentration for a half-maximal effect (EC50) was above 0.5 µM.

With `CCN1[C@@H](c2ccccc2)CC[C@H]1C(=O)N1CCN(C(c2ccc(F)cc2)c2ccc(F)cc2)CC1` [Compound 225], the concentration giving a half-maximal response (EC50) is below 0.1 µM.

Take `CC1CC[C@@H](C(=O)N2CCC(Cc3ccccc3)CC2)N1Cc1ccccc1` (stereo partly drawn) [Compound 227]: the EC50 lay within 0.1 to 0.5 µM.

In the case of `CN1CSC(C)(C)[C@@H]1C(=O)N1CCC(Cc2ccccc2)CC1` [Compound 228], the half-maximal effective concentration (EC50) was above 0.5 µM.

In the case of `C[C@@]1(C(=O)N2CCC(Cc3ccccc3)CC2)CCCN1Cc1ccccc1` [Compound 229], the EC50 is above 0.5 µM.

As to `CN1CSC(C)(C)[C@@H]1C(=O)N1CCN(C(c2ccc(F)cc2)c2ccc(F)cc2)CC1` [Compound 230], the concentration giving a half-maximal response (EC50) is above 0.5 µM.

Take `O=C([C@H]1CC[C@@H](c2ccccc2)N1Cc1ccccc1)N1CCC(Cc2ccccc2)CC1` [Compound 231]: the concentration giving a half-maximal response (EC50) fell in the range of 0.1 to 0.5 µM.

As for `CCN1CC[C@H]1C(=O)N1CCC(Cc2ccccc2)CC1` [Compound 232], the EC50 lay in the range of 0.1 to 0.5 µM.

As to `O=C([C@@H]1CC[C@H](c2ccccc2)N1Cc1ccccc1)N1CCC(Cc2ccccc2)CC1` [Compound 233], the EC50 lay in the range of 0.1 to 0.5 µM.

Regarding `CCN1CC=C[C@H]1C(=O)N1CCC(Cc2ccccc2)CC1` [Compound 234], the EC50 was above 0.5 µM.

Regarding `O=C([C@@H]1[C@H](c2ccccc2)CCN1Cc1ccccc1)N1CCC(Cc2ccccc2)CC1` [Compound 235], the EC50 is above 0.5 µM.

Regarding `CCN1C[C@H]2C[C@@H]2C1C(=O)N1CCC(Cc2ccccc2)CC1` (stereo partly drawn) [Compound 236], the EC50 was 0.1 to 0.5 µM.

Turning to `O=C([C@@H]1C=CCN1Cc1ccccc1)N1CCN(C(c2ccc(F)cc2)c2ccc(F)cc2)CC1` [Compound 237], the concentration for a half-maximal effect (EC50) is above 0.5 µM.

In the case of `CCN1CC[C@H](C)[C@H]1C(=O)N1CCC(Cc2ccccc2)CC1` [Compound 238], the EC50 was below 0.1 µM.

As for `O=C(C1[C@H]2C[C@@H]2CN1Cc1ccccc1)N1CCN(C(c2ccc(F)cc2)c2ccc(F)cc2)CC1` (stereo partly drawn) [Compound 239], the EC50 is above 0.5 µM.

For `CCN1C(C)CC[C@H]1C(=O)N1CCC(Cc2ccccc2)CC1` (stereo partly drawn) [Compound 240], the EC50 is below 0.1 µM.

As for `C[C@H]1CCN(Cc2ccccc2)[C@@H]1C(=O)N1CCN(C(c2ccc(F)cc2)c2ccc(F)cc2)CC1` [Compound 241], the EC50 is above 0.5 µM.

`CCN1CCC[C@]1(C)C(=O)N1CCC(Cc2ccccc2)CC1` [Compound 242]: the EC50 is below 0.1 µM.

Regarding `CC1CC[C@@H](C(=O)N2CCN(C(c3ccc(F)cc3)c3ccc(F)cc3)CC2)N1Cc1ccccc1` (stereo partly drawn) [Compound 243], the EC50 was above 0.5 µM.

Take `CCN1CSC[C@H]1C(=O)N1CCC(Cc2ccccc2)CC1` [Compound 244]: the EC50 was above 0.5 µM.

Take `C[C@@]1(C(=O)N2CCN(C(c3ccc(F)cc3)c3ccc(F)cc3)CC2)CCCN1Cc1ccccc1` [Compound 245]: the 50% effective concentration (EC50) fell in the range of 0.1 to 0.5 µM.
